Source: the supplement of paper PMC11061612

What was measured:
[1] = test system: NCI-H1694 (Small Cell Lung Carcinoma); assay: Bliss excess, mean over the matrix (fraction); higher = more synergy
In short: (§1)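 Cell lines in DMEM/F12 or RPMI with 10% FBS were plated in 1536-well plates, held 24 hours at 37°C, 5% CO2, then given two-drug dose matrices for 72 hours (DMSO typically 0.2%). Viability was read by CellTiter-Glo 2.0 luminescence and scaled as inhibition from 0 (vehicle wells) to 1 (blank wells). Combination Emax is the second-highest inhibition in the matrix; Bliss excess is observed combination effect minus expected EA + EB − EA·EB, EA and EB being single-agent effects.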

[2] = test system: KATOIII (Gastric Carcinoma); assay: as above
In short: as §1

NCI-H2595 (Mesothelioma) [3] = assay: as above
In short: as §1

[4] = test system: KM-H2 (Hodgkin's Lymphoma); assay: as above
In short: as §1

RH-1 (Ewing's Sarcoma) = assay: as above
In short: as §1

[5] = test system: TGBC24TKB (Biliary Tract Carcinoma); assay: as above
In short: as §1

[6] = test system: CTV-1 (T-Lymphoblastic Leukemia); assay: as above
In short: as §1

[7] = test system: KARPAS-1106P (B-Cell Non-Hodgkin's Lymphoma); assay: as above
In short: as §1

[8] = test system: SW1990 (Pancreatic Carcinoma); assay: as above
In short: as §1

[9] = test system: SUIT-2 (Pancreatic Carcinoma); assay: as above
In short: as §1

[10] = test system: G-292-Clone-A141B1 (Osteosarcoma); assay: as above
In short: as §1

[11] = test system: HCC2157 (Breast Carcinoma); assay: combination Emax (second highest fraction inhibited in the dose matrix, 72 h); higher = more inhibition; extreme values may be limits of the assay
In short: as §1

NCI-H2595 (Mesothelioma) [12] = assay: as above
In short: as §1

IGR-1 (Melanoma) = assay: as above
In short: as §1

[13] = test system: CTV-1 (T-Lymphoblastic Leukemia); assay: as above
In short: as §1

[14] = test system: NALM-6 (B-Lymphoblastic Leukemia); assay: as above
In short: as §1

[15] = test system: KARPAS-1106P (B-Cell Non-Hodgkin's Lymphoma); assay: as above
In short: as §1

[16] = test system: SW1088 (Low Grade Glioma); assay: as above
In short: as §1

[17] = test system: DMS-273 (Small Cell Lung Carcinoma); assay: as above
In short: as §1

[18] = test system: G-292-Clone-A141B1 (Osteosarcoma); assay: as above
In short: as §1
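Wherever Bliss excess, mean over the matrix is given: after 72 h of two-drug dosing.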

SMILES	Bliss excess [1]	Bliss excess [2]	Bliss excess (NCI-H2595 (Mesothelioma) [3])	Bliss excess [4]	Bliss excess (RH-1 (Ewing's Sarcoma))	Bliss excess [5]	Bliss excess [6]	Bliss excess [7]	Bliss excess [8]	Bliss excess [9]	Bliss excess [10]	combination Emax [11]	combination Emax (NCI-H2595 (Mesothelioma) [12])	combination Emax (IGR-1 (Melanoma))	combination Emax [13]	combination Emax [14]	combination Emax [15]	combination Emax [16]	combination Emax [17]	combination Emax [18]
NC1(C(=O)N[C@@H](CCO)c2ccc(Cl)cc2)CCN(c2ncnc3[nH]ccc23)CC1 [Capivasertib] + C[C@@H]1COCCN1C2=NC(=NC(=C2)C3(CC3)[S@](=N)(=O)C)C4=C5C=CNC5=NC=C4 [AZD6738] (first compound max 10 µM, 7x7, partner max 10 µM)	-0.0412	-0.0941	-0.0114	-0.0181	-0.0098	-0.0104	0.0489	-0.0661	-0.0259	-0.0351	-0.0276	1	0.29	0.713	0.902	0.984	0.694	0.707	0.856	0.538
CC(=O)Nc1cccc(-n2c(=O)n(C3CC3)c(=O)c3c(Nc4ccc(I)cc4F)n(C)c(=O)c(C)c32)c1 [Trametinib] + Cc1nc(-c2cn3c(n2)-c2ccc(-c4cnn(C(C)(C)C(N)=O)c4)cc2OCC3)n(C(C)C)n1 [Taselisib] (first compound max 1 µM, 7x7, partner max 10 µM)	0.0583	0.0938	0.0412	0.0338	0.0194	0.196	0.328	0.088	0.148	0.0928	0.0804	1	0.404	0.759	0.96	0.689	0.749	0.696	0.591	0.921
CN(CCO)CC[C@H](CSc1ccccc1)Nc1ccc(S(=O)(=O)NC(=O)c2ccc(N3CCC([C@@H](O)c4ccccc4-c4ccc(Cl)cc4)CC3)cc2)cc1S(=O)(=O)C(F)(F)F [AZD4320] + CCN(CCO)CCCOc1ccc2c(Nc3cc(CC(=O)Nc4cccc(F)c4)[nH]n3)ncnc2c1 [AZD2811] (first compound max 1 µM, 7x7, partner max 1 µM)	0.169	-0.0434	-0.032	-0.0035	-0.0551	0.0337	0.0053	0.0326	-0.0214	-0.0472	0.0019	0.979	0.125	0.926	0.27	0.98	0.215	0.306	0.766	0.578
